Laboratory results taken from US20220105058A1, “USE OF 3-O-SULFAMATE-16,16-DIMETHYL-D-HOMOEQUILENIN TO TREAT ONCOLOGICAL DISEASES” (priority 2018, published 2022).
Where “and” joins values, the source holds several entries; their conditions need not be identical. Identical values can stand only once. Entries after “also recorded” stand apart in the source; their conditions may differ.

Columns and labels:
[1] = tested on: triple negative breast cancer MDA-MB-231 cell line; experiment: cell proliferation in MDA-MB-231; type: cell-based
[2] = cholesterol and triglycerides in blood serum (summary statement)
[3] = acute oral toxicity, OECD 423 test; conditions: for Lethal effects (dead/total): 14 days observation
Procedure: LD50 of the medicament was determined in FVB mice transgenic for HER-2/neu using the OECD 423 test (OECD guideline for testing of chemicals. Acute Oral Toxicity-Acute Toxic Class Method).
12 female mice were used in the experiment.
At the first step, 3 mice were given the medicament at a dose of 300 mg/kg. The study medicament was administered intragastrically (i.g.) using a metal atraumatic gavage (the procedure corresponds to the oral administration in clinical settings). […] The dosage form for administration was prepared ex tempore.
The animals were examined 2 times a day, clinically examined individually after the dose administration during the first 60 minutes, with special attention during the first 4 hours, periodically during the first 24 hours, on Day 2 and weekly for up to 14 days. Each animal was thoroughly examined in the housing cage in the observer's hands. The overall conditions of the animals were recorded, such as peculiarities in their behavior, intensity and nature of motor activity, fur and skin appearance.
The body weights of the animals were recorded using a verified high-speed electronic laboratory balance Ohaus Scout Pro (USA) with a maximum load of 2000 g and a measurement step of 0.1 g.
On Day 15, the animals were euthanized and undergone autopsy analysis with the registration of macroscopic changes. The data was collected in a special individual autopsy form.
All of the experimental animals were subject to pathomorphological examination at the end of the study. The euthanized animals were carefully examined for the external pathological changes. The chest and abdominal cavities were examined along with the macroscopic analysis of internal organs.
When assessing the acute toxicity the animals were continuously observed for the first 60 minutes, and then examined every hour for 3 hours and further once in 24 hours. On the second day, the observation was carried out twice per day. Further the observations were made once per day. […] The animal was thoroughly examined in the housing cage in the observer's hands. The overall conditions of the animals were recorded, such as peculiarities in their behavior, intensity and nature of motor activity, fur and skin appearance.

## CC1(C)CC(=O)[C@@]2(C)CCc3c(ccc4cc(OS(N)(=O)=O)ccc34)[C@@H]2C1 [medicament, 3-O-sulfamate-16,16-dimethyl-D-homoequilenin]
[1]
  inhibition of cell proliferation: 83%
[2]
  effects on the content of triglycerides in blood serum: absence of effects
  hypocholesterolemic activity: hypocholesterolemic activity
[3]; 300 mg/kg
  signs of intoxication: None of the animals exhibited visual signs of intoxication
[3]; 300 mg/kg i.g.
  Lethal effects (dead/total): no animals died and no animals deaths were detected and 0/6
[3]; 300 mg/kg, Day 1 (before administration)
  average body weight: 28.1 g
[3]; 300 mg/kg, Day 1 (before administration), in g (unit assumed)
  body weight of individual mice: 29.6 and 27.8 and 28.0 and 30.0 and 27.0 and 26.4
[3]; 300 mg/kg, Day 2
  average body weight: 28.1 g
  average body weight, % from baseline: 0%
[3]; 300 mg/kg, Day 2, in g (unit assumed)
  body weight of individual mice: 29.2 and 27.4 and 27.8 and 30.4 and 27.2 and 26.8
[3]; 300 mg/kg, Day 7
  average body weight: 29.1 g
  average body weight, % from baseline: 3%
[3]; 300 mg/kg, Day 7, in g (unit assumed)
  body weight of individual mice: 29.6 and 28.2 and 29.7 and 31.2 and 28.4 and 27.2
[3]; 300 mg/kg, Day 14
  average body weight: 29.5 g
  average body weight, % from baseline: 5%
[3]; 300 mg/kg, Day 14, in g (unit assumed)
  body weight of individual mice: 30.2 and 29.0 and 30.6 and 31.1 and 28.6 and 27.6
[3]; 2000 mg/kg
  clinical signs of intoxication: No clinical signs of intoxication were observed
[3]; 2000 mg/kg i.g. in 2 steps
  Lethal effects (dead/total): 0/6
[3]; 2000 mg/kg, Day 1 (before administration)
  average body weight: 26.2 g
[3]; 2000 mg/kg, Day 1 (before administration), in g (unit assumed)
  body weight of individual mice: 28.4 and 27.5 and 25.7 and 24.2 and 24.0 and 27.2
[3]; 2000 mg/kg, Day 2
  average body weight: 25.8 g
  average body weight, % from baseline: −1%
  decrease in the average body weight from baseline: 1%
[3]; 2000 mg/kg, Day 2, in g (unit assumed)
  body weight of individual mice: 28.0 and 26.8 and 25.3 and 24.4 and 23.8 and 26.4
[3]; 2000 mg/kg, Day 7
  average body weight: 25.7 g
  average body weight, % from baseline: −2%
  decrease in the average body weight from baseline: 2%
[3]; 2000 mg/kg, Day 7, in g (unit assumed)
  body weight of individual mice: 26.8 and 24.9 and 25.0 and 25.9 and 25.4 and 26.3
[3]; 2000 mg/kg, Day 14
  average body weight: 27 g
  average body weight, % from baseline: 3%
  body weight of individual mice: 26.9 (2×) and 26.0 and 26.6 and 28.7 and 27.0
[3]; Day 15
  macroscopic examination of internal organs at autopsy: did not reveal any pathological changes; also recorded: did not reveal any abnormalities
[3]; mouse, in vivo
  hazard class / category: 5th or non-classified category and 4th hazard class and 5th or unclassified category
[3]; summary statement
  toxicity: absence of toxicity
